Key:
OPTEC tubules [1] = details: 48 h
Experimental: Before beginning these experiments, three important steps were carried out: (1) all reservoirs were supplied with fresh media, (2) all outlet tubing was cut to the same length, and (3) all chips were subjected to one-way rather than recirculating back to the media reservoir. After each chip within the MCDs was subjected to one-way flow (2 μL/min) for 4 h, a baseline sample of the perfusate was collected from the luminal outlet tubing for 3 h into a 1.6 mL Eppendorf tube. Next, cisplatin (50 μM) or aristolochic acid (25 μM) was delivered basolaterally on chip by manually pipetting each drug solution to the appropriate basal media reservoir. Next, all tubing was reconnected to the peristaltic pump and allowed to flow at a flow rate of 2 μL/min. After 48 h, another sample of the perfusate was collected from the luminal outlet tubing for 3 h into a 1.6 mL Eppendorf tube. All collected luminal media samples were spun down at 5000 rcf for 5 min to remove cellular debris. Each supernatant was transferred to a fresh tube and stored at −20° C. to run the LDH assay. For samples pre-treated with inhibitors, cimetidine (1 mM) or probenecid (2 mM) was first added to the basal reservoir, delivered basolaterally, and allowed to diffuse through the gelatin-fibrin matrix during recirculating flow for 1 h.
LDH assays were performed according to the manufacturer's instructions (Promega, CytoTox Non-Radioactive Cytotoxicity Assay, G1780). The frozen media samples were thawed at room temperature and used after this first thaw cycle. Next, 50 μL of each media was transferred to a 96-well plate and incubated at 37° C. for 30 min with 50 μL of CytoTox 96 reagent. 50 μL of stop solution was then added, all bubbles were removed using a syringe, and their absorbance was recorded at 490 nm using a plate reader.
(§1) Normalized LDH release was calculated using the following equation: […]
LDH48 was the recorded absorbance of the 48-h perfusate sample and LDHbaseline was the recorded absorbance of baseline perfusate sample before drug exposure. Normalized LDH release was calculated for each of the tubules individually and plotted into sample groups comparing OPTEC-on-chip and PTEC-TERT1-on-chip models subjected to each drug ±inhibitor.
To assess nephrotoxicity, luminal perfusate was collected and LDH analyses were performed. LDH is a cytosolic enzyme found in nearly all cell types, including PTECs, that is released upon cellular damage^29. […] Due to differences in their baseline LDH release among different tubules across the two cell types, a normalized LDH release (LDH release at 48 h relative to baseline release) was determined for each sample, i.e., OPTEC and PTEC-TERT1 tubules without drug, with drug, and with drug and corresponding inhibitors for OCT2 and OAT1/3 transporters, respectively.

PTEC-TERT1 tubules = assay: Nephrotoxicity testing: normalized LDH release in luminal perfusate of PTEC-TERT1-on-chip tubules (control chips); assay type: cell-based, human
Experimental: Before beginning these experiments, three important steps were carried out: (1) all reservoirs were supplied with fresh media, (2) all outlet tubing was cut to the same length, and (3) all chips were subjected to one-way rather than recirculating back to the media reservoir. After each chip within the MCDs was subjected to one-way flow (2 μL/min) for 4 h, a baseline sample of the perfusate was collected from the luminal outlet tubing for 3 h into a 1.6 mL Eppendorf tube. Next, cisplatin (50 μM) or aristolochic acid (25 μM) was delivered basolaterally on chip by manually pipetting each drug solution to the appropriate basal media reservoir. […]
LDH assays were performed according to the manufacturer's instructions (Promega, CytoTox Non-Radioactive Cytotoxicity Assay, G1780). […] 50 μL of stop solution was then added, all bubbles were removed using a syringe, and their absorbance was recorded at 490 nm using a plate reader.
as §1
LDH48 was the recorded absorbance of the 48-h perfusate sample and LDHbaseline was the recorded absorbance of baseline perfusate sample before drug exposure. Normalized LDH release was calculated for each of the tubules individually and plotted into sample groups comparing OPTEC-on-chip and PTEC-TERT1-on-chip models subjected to each drug ±inhibitor. […]

OPTECs = assay: 2D OPTEC culture with media supplements to minimize epithelial to mesenchymal transition; assay type: cell-based, human
Experimental: Organoid-derived PTECs (OPTECs) were cultured in 24-well plates pretreated with 1:20 laminin-511 (Biolamina LN511) in DPBS with calcium and magnesium. For passages 0 and 1, the OPTECs were cultured in REGM media supplemented with 1% FBS. Upon reaching passage 2, the OPTECs were cultured using LPTEC media supplemented with 1% FBS and 10 μM SB431542 (ab120163). Each passage was performed when the cells reached ˜90% confluency by first washing the cells with DPBS without calcium and magnesium, treating with 0.05% trypsin/EDTA for 3-5 min (or until cells lifted off the plate), followed by quenching with culture medium, centrifuging at 240 ref for 4 min, resuspending in culture media, and seeding each laminin pre-treated well at a density of 70,000-100,000 cells/cm^2.
Next, the effects of two different media were tested: (1) modified DMEM F-12 medium described by previous work^14 (LPTEC) and (2) commercially available renal epithelial growth medium (REGM). […] To further promote cell attachment, growth, and proliferation, 1% FBS was added to the media. To minimize epithelial to mesenchymal transition (EMT), the effects of transforming growth factor (TGF-β), bone morphogenic protein 7 (BMP7) and TGF-β/activin/NODAL pathway (SB431542) inhibitors were explored (FIG. 6k-l)^26. […]

OPTEC tubules [2] = assay: Diffusional permeability measurement of FITC-inulin through tubules on chip; assay type: cell-based, human; details: 4.5 kDa FITC-inulin 100 μg/mL perfused through lumen, OPTEC tubules vs PTEC-TERT1 tubules (control)
Experimental: The barrier function of the 3D OPTECs- and PTEC-TERT1 s based models was assessed by measuring the diffusional permeability of 4.5 kDa inulin. This compound was selected because is neither up taken up nor secreted by PTECs in-vivo. FITC-labeled inulin (Sigma product F3272) was dissolved in prewarmed LPTEC media at a concentration of 100 μg/mL and perfused through the luminal channel at a rate of 20 μL/min for 3 min and 1.5 μL/min thereafter for 15 min. The diffusion of FITC-inulin was calculated by: […]
Where Pd is the diffusional permeability coefficient, I1 is the average intensity at the initial time point, I2 is the average intensity at time t, Ib is the background intensity taken before perfusion of FITC-inulin, and dis the diameter of the channel^13.

UB cells = assay: FITC-inulin retention in perfused epithelialized UB channels on chip (barrier function); assay type: cell-based, human; details: perfused epithelialized UB channels vs empty channels, after 1 hour
Experimental: To fabricate this chip, first the various chip components were assembled (FIG. 17A) and ECM was added to an inner reservoir around a pin and crosslinked. The pin was then removed forming an open channel that can be seeded with cells (FIG. 17B). This design allowed for easy access to the ECM and medium bathing the ECM. After seeding, cells formed confluent monolayers along channel walls within 3-7 days (FIG. 16C,D,E). Perfused epithelialized channels retained FITC-inulin after 1 hour relative to empty channels, indicating barrier function (FIG. 16F,G).

COc1cccc2c1cc([N+](=O)[O-])c1c(C(=O)O)cc3c(c12)OCO3 [aristolochic acid]
LDH release compared to PTEC-TERT1 tubules (OPTEC tubules [1]; 25 μM aristolochic acid delivered basolaterally, OPTEC tubules on chip): significantly higher

N.N.[Cl][Pt][Cl] [cisplatin]
normalized LDH response compared to PTEC-TERT1 s (OPTEC tubules [1]; 50 μM cisplatin delivered basolaterally, OPTEC tubules on chip): significantly higher

CN/C(=N/CCSCc1nc[nH]c1C)NC#N [cimetidine]
decrease of normalized LDH release upon OCT2 inhibitor (factor) (OPTEC tubules [1]; cimetidine 1 mM pre-treatment, 50 μM cisplatin, OPTEC tubules): > 2
effect of OCT2 inhibition on normalized LDH release (PTEC-TERT1 tubules; cimetidine 1 mM, same cisplatin dose (50 μM)): far less effect

NC(=O)c1ccc(-c2nc(-c3ccc4c(c3)OCO4)c(-c3ccccn3)[nH]2)cc1 [SB431542]
cell morphology during prolonged cell culture (OPTECs; 10 μM, OPTECs 2D culture): cuboidal cell morphology
EMT marker expression in 2D OPTEC monolayers (OPTECs; SB431542 as media supplement, 2D culture): down regulation of EMT markers

FITC-inulin
diffusional permeability (OPTEC tubules [2]): comparable to that observed for PTEC-TERT1 tubules
retention of FITC-inulin in channel (barrier function) (UB cells): retained

CCCN(CCC)S(=O)(=O)c1ccc(C(=O)O)cc1 [probenecid]
normalized LDH release upon OAT1/3 inhibitor (OPTEC tubules [1]; probenecid 2 mM pre-treatment, 25 μM aristolochic acid, OPTEC tubules): substantially reduced
effect of OAT1/3 inhibition on normalized LDH release (PTEC-TERT1 tubules; probenecid 2 mM, same aristolochic acid dose (25 μM)): negligible effect

From US20250304893A1, “PERFUSABLE 3D TUBULE-ON-CHIP MODEL DERIVED FROM KIDNEY ORGANOIDS WITH IMPROVED DRUG UPTAKE” (President and Fellows of Harvard College, priority 2022, published 2025)
